From patent US12077503B2, “Substituted cyclic amides and their use as herbicides” (FMC CORPORATION, priority 2015, dated 2024)

Assays:
Assay type in all cases: in vivo
[1] = system: barnyardgrass (Echinochloa crus-galli); test: Test G Pre-Emergence Protocol; details: Echinochloa crus-galli, pre-emergence, 312 h, evaluated after 13 days; for pest or weed control at 15.625 g/ha: 15.625 g ai/ha, read-out: Barnyard grass damage rating (100=total damage to plant; 0=no damage to plant); for pest or weed control at 62.5 g/ha: 62.5 g ai/ha, 100=total damage to plant, 0=no damage to plant, read-out: plant damage rating, Barnyardgrass; for pest or weed control at 250 g/ha: 250 g ai/ha, read-out: Barnyardgrass damage rating (100=total damage to plant; 0=no damage to plant)
Method in brief: (§1)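 Seeds were sown in standard soil and kept one day in a glasshouse (24/16° C day/night, 14 h light, 65% humidity), then sprayed with compound in acetone/water (50:50) containing 0.5% Tween 20 at 15.625, 62.5 or 250 g/ha. Damage was scored after 13 days (0 = none, 100 = total).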

[2] = system: redroot pigweed (Amaranthus retroflexus); test: Test G Pre-Emergence Protocol; details: Amaranthus retroflexus, pre-emergence, 312 h, evaluated after 13 days; for pest or weed control at 15.625 g/ha: 15.625 g ai/ha; for pest or weed control at 15.625 g/ha / pest or weed control at 250 g/ha: read-out: Pigweed, Redroot damage rating (100=total damage to plant; 0=no damage to plant); for pest or weed control at 62.5 g/ha: 62.5 g ai/ha, 100=total damage to plant, 0=no damage to plant, read-out: plant damage rating, Pigweed, Redroot; for pest or weed control at 250 g/ha: 250 g ai/ha
Method in brief: as §1

[3] = system: velvetleaf (Abutilon theophrasti); test: Test G Pre-Emergence Protocol; details: Abutilon theophrasti, pre-emergence, 312 h, evaluated after 13 days; for pest or weed control at 15.625 g/ha: 15.625 g ai/ha; for pest or weed control at 15.625 g/ha / pest or weed control at 250 g/ha: read-out: Velvetleaf damage rating (100=total damage to plant; 0=no damage to plant); for pest or weed control at 62.5 g/ha: 62.5 g ai/ha, 100=total damage to plant, 0=no damage to plant, read-out: plant damage rating, Velvetleaf; for pest or weed control at 250 g/ha: 250 g ai/ha
Method in brief: as §1

[4] = system: ivy-leaved morning glory (Ipomoea hederacea); test: Test G Pre-Emergence Protocol; details: Ipomoea, pre-emergence, 312 h, evaluated after 13 days; for pest or weed control at 15.625 g/ha: 15.625 g ai/ha, read-out: Morning-glory, Ivy-leaved damage rating (100=total damage to plant; 0=no damage to plant); for pest or weed control at 62.5 g/ha: 62.5 g ai/ha, 100=total damage to plant, 0=no damage to plant, read-out: plant damage rating, Morningglory, Ivy-leaved; for pest or weed control at 250 g/ha: 250 g ai/ha, read-out: Morningglory, Ivy-leaved damage rating (100=total damage to plant; 0=no damage to plant)
Method in brief: as §1

[5] = system: giant foxtail (Setaria faberi); test: Test G Pre-Emergence Protocol; details: Setaria faberi, pre-emergence, 312 h, evaluated after 13 days; for pest or weed control at 15.625 g/ha: 15.625 g ai/ha; for pest or weed control at 15.625 g/ha / pest or weed control at 250 g/ha: read-out: Foxtail, Giant damage rating (100=total damage to plant; 0=no damage to plant); for pest or weed control at 62.5 g/ha: 62.5 g ai/ha, 100=total damage to plant, 0=no damage to plant, read-out: plant damage rating, Foxtail, Giant; for pest or weed control at 250 g/ha: 250 g ai/ha
Method in brief: as §1

[6] = system: corn (Zea mays); test: Test G Pre-Emergence Protocol; details: Zea mays, pre-emergence, 312 h, evaluated after 13 days; for plant injury at 15.625 g/ha: 15.625 g ai/ha; for plant injury at 15.625 g/ha / plant injury at 250 g/ha: read-out: Corn damage rating (100=total damage to plant; 0=no damage to plant); for plant injury at 62.5 g/ha: 62.5 g ai/ha, 100=total damage to plant, 0=no damage to plant, read-out: plant damage rating, Corn; for plant injury at 250 g/ha: 250 g ai/ha
Method in brief: as §1

[7] = system: barnyardgrass (Echinochloa crus-galli); test: Test G Post-Emergence Protocol; details: Echinochloa crus-galli, post-emergence, 312 h; for pest or weed control at 15.625 g/ha: 15.625 g ai/ha, evaluated after 13 days (100=total damage to plant; 0=no damage to plant), read-out: Barnyardgrass damage rating; for pest or weed control at 62.5 g/ha: 62.5 g ai/ha, read-out: Barnyardgrass damage rating (100=total damage to plant; 0=no damage to plant); for pest or weed control at 62.5 g/ha / pest or weed control at 250 g/ha: evaluated after 13 days; for pest or weed control at 250 g/ha: 250 g ai/ha, read-out: damage to plant, Barnyardgrass (100=total damage to plant; 0=no damage to plant)
Method in brief: (§2)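 Sow in soil; grow 8 d (24/16 °C, 14 h light, 65% humidity); spray 15.625/62.5/250 g/ha in acetone:water 50:50 + 0.5% Tween 20; grow on, water twice daily; score damage 0–100 at 13 d.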

[8] = system: redroot pigweed (Amaranthus retroflexus); test: Test G Post-Emergence Protocol; details: Amaranthus retroflexus, post-emergence, 312 h; for pest or weed control at 15.625 g/ha: 15.625 g ai/ha, evaluated after 13 days (100=total damage to plant; 0=no damage to plant), read-out: Pigweed, Redroot damage rating; for pest or weed control at 62.5 g/ha: 62.5 g ai/ha, read-out: Pigweed, Redroot damage rating (100=total damage to plant; 0=no damage to plant); for pest or weed control at 62.5 g/ha / pest or weed control at 250 g/ha: evaluated after 13 days; for pest or weed control at 250 g/ha: 250 g ai/ha, read-out: damage to plant, Pigweed, Redroot (100=total damage to plant; 0=no damage to plant)
Method in brief: as §2

[9] = system: velvetleaf (Abutilon theophrasti); test: Test G Post-Emergence Protocol; details: Abutilon theophrasti, post-emergence, 312 h; for pest or weed control at 15.625 g/ha: 15.625 g ai/ha, evaluated after 13 days (100=total damage to plant; 0=no damage to plant), read-out: Velvetleaf damage rating; for pest or weed control at 62.5 g/ha: 62.5 g ai/ha, read-out: Velvetleaf damage rating (100=total damage to plant; 0=no damage to plant); for pest or weed control at 62.5 g/ha / pest or weed control at 250 g/ha: evaluated after 13 days; for pest or weed control at 250 g/ha: 250 g ai/ha, read-out: damage to plant, Velvetleaf (100=total damage to plant; 0=no damage to plant)
Method in brief: as §2

[10] = system: ivy-leaved morning glory (Ipomoea hederacea); test: Test G Post-Emergence Protocol; details: Ipomoea, post-emergence, 312 h; for pest or weed control at 15.625 g/ha: 15.625 g ai/ha, evaluated after 13 days (100=total damage to plant; 0=no damage to plant), read-out: Morningglory, Ivy-leaved damage rating; for pest or weed control at 62.5 g/ha: 62.5 g ai/ha, read-out: Morningglory, Ivy-leaved damage rating (100=total damage to plant; 0=no damage to plant); for pest or weed control at 62.5 g/ha / pest or weed control at 250 g/ha: evaluated after 13 days; for pest or weed control at 250 g/ha: 250 g ai/ha, read-out: damage to plant, Morningglory, Ivy-leaved (100=total damage to plant; 0=no damage to plant)
Method in brief: as §2

[11] = system: giant foxtail (Setaria faberi); test: Test G Post-Emergence Protocol; details: Setaria faberi, post-emergence, 312 h; for pest or weed control at 15.625 g/ha: 15.625 g ai/ha, evaluated after 13 days (100=total damage to plant; 0=no damage to plant), read-out: Foxtail, Giant damage rating; for pest or weed control at 62.5 g/ha: 62.5 g ai/ha, read-out: Foxtail, Giant damage rating (100=total damage to plant; 0=no damage to plant); for pest or weed control at 62.5 g/ha / pest or weed control at 250 g/ha: evaluated after 13 days; for pest or weed control at 250 g/ha: 250 g ai/ha, read-out: damage to plant, Foxtail, Giant (100=total damage to plant; 0=no damage to plant)
Method in brief: as §2

[12] = system: corn (Zea mays); test: Test G Post-Emergence Protocol; details: Zea mays, post-emergence, 312 h; for plant injury at 15.625 g/ha: 15.625 g ai/ha, evaluated after 13 days (100=total damage to plant; 0=no damage to plant), read-out: Corn damage rating; for plant injury at 62.5 g/ha: 62.5 g ai/ha, read-out: Corn damage rating (100=total damage to plant; 0=no damage to plant); for plant injury at 62.5 g/ha / plant injury at 250 g/ha: evaluated after 13 days; for plant injury at 250 g/ha: 250 g ai/ha, read-out: damage to plant, Corn (100=total damage to plant; 0=no damage to plant)
Method in brief: as §2

SMILES	pest or weed control at 15.625 g/ha [1]	pest or weed control at 62.5 g/ha [1]	pest or weed control at 250 g/ha [1]	pest or weed control at 15.625 g/ha [2]	pest or weed control at 62.5 g/ha [2]	pest or weed control at 250 g/ha [2]	pest or weed control at 15.625 g/ha [3]	pest or weed control at 62.5 g/ha [3]	pest or weed control at 250 g/ha [3]	pest or weed control at 15.625 g/ha [4]	pest or weed control at 62.5 g/ha [4]	pest or weed control at 250 g/ha [4]	pest or weed control at 15.625 g/ha [5]	pest or weed control at 62.5 g/ha [5]	pest or weed control at 250 g/ha [5]	plant injury at 15.625 g/ha [6]	plant injury at 62.5 g/ha [6]	plant injury at 250 g/ha [6]	pest or weed control at 15.625 g/ha [7]	pest or weed control at 62.5 g/ha [7]	also measured
CN1C[C@@H](c2cc(Cl)cc(C(F)(F)F)c2)[C@H](C(=O)Nc2ccccc2F)C1=O (racemic) [Compound 1414]	20%	70%	80%	0%	0%	0%	0%	0%	0%	0%	0%	20%	60%	80%	80%	0%	20%	50%	50%	50%	pest or weed control at 250 g/ha [7]: 60%; pest or weed control at 15.625 g/ha [8]: 10%; pest or weed control at 62.5 g/ha [8]: 0%; pest or weed control at 250 g/ha [8]: 30%; pest or weed control at 15.625 g/ha [9]: 0%; pest or weed control at 62.5 g/ha [9]: 0%; pest or weed control at 250 g/ha [9]: 0%; pest or weed control at 15.625 g/ha [10]: 0%; pest or weed control at 62.5 g/ha [10]: 30%; pest or weed control at 250 g/ha [10]: 30%; pest or weed control at 15.625 g/ha [11]: 70%; pest or weed control at 62.5 g/ha [11]: 70%; pest or weed control at 250 g/ha [11]: 80%; plant injury at 15.625 g/ha [12]: 20%; plant injury at 62.5 g/ha [12]: 50%; plant injury at 250 g/ha [12]: 80%
Cc1cc(C(F)(F)F)ccc1[C@@H]1CN(C)C(=O)[C@H]1C(=O)Nc1ccccc1F (racemic) [Compound 1415]	10%	50%	70%	10%	0%	10%	0%	0%	0%	0%	0%	0%	10%	70%	80%	0%	0%	0%	20%	30%	pest or weed control at 250 g/ha [7]: 60%; pest or weed control at 15.625 g/ha [8]: 10%; pest or weed control at 62.5 g/ha [8]: 10%; pest or weed control at 250 g/ha [8]: 30%; pest or weed control at 15.625 g/ha [9]: 10%; pest or weed control at 62.5 g/ha [9]: 0%; pest or weed control at 250 g/ha [9]: 20%; pest or weed control at 15.625 g/ha [10]: 10%; pest or weed control at 62.5 g/ha [10]: 10%; pest or weed control at 250 g/ha [10]: 20%; pest or weed control at 15.625 g/ha [11]: 20%; pest or weed control at 62.5 g/ha [11]: 60%; pest or weed control at 250 g/ha [11]: 70%; plant injury at 15.625 g/ha [12]: 20%; plant injury at 62.5 g/ha [12]: 10%; plant injury at 250 g/ha [12]: 20%
